Laboratory results from patent US9932300B2, “N,N′-diarylurea compounds and N,N′-diarylthiourea compounds as inhibitors of translation initiation” (President and Fellows of Harvard College, priority 2009, dated 2018).

System: eIF2-GTP-Met-tRNAi ternary complex
Test: Ternary complex assay (dual luciferase, firefly/renilla ratio) in stable KLN-tTA/pBISA-DL(ATF-4) cells; HTS and hit confirmation
Format: cell-based, mouse
Set-up: Activity 10 uM / Activity 2.5 uM / Activity 5 uM: unit not given here
Conditions: confirmed hits of the screen (Table 5); for Activity 2.5 uM: compound at 2.5 uM; for Activity 10 uM: compound at 10 uM; for Activity 5 uM: compound at 5 uM

Row | Compound | Activity 2.5 uM | Activity 10 uM | Activity 5 uM
1 | S=C(N=Nc1ccccc1)N[N-]c1ccccc1.S=C(N=Nc1ccccc1)N[N-]c1ccccc1.[Zn+2] [Compound 293939] | 1.54 | 7.78 | –
2 | CCOC(=C\C=C\C1=[N+](C)c2ccccc2C1(C)C)/C=C/C=C1/N(C)c2ccccc2C1(C)C.F[B-](F)(F)F [Compound 295477] | 6.24 | 9.07 | –
3 | CCCCCCCCCCCCCCCC[N+](C)(C)CCOC(C)=O.O=S(=O)([O-])C(F)(F)F [Compound 297153] | 0.95 | 4.39 | –
4 | CCCCCCCCCCCCCCCC[N+](C)(C)CCN=[N+]=[N-].O=S(=O)([O-])C(F)(F)F [Compound 297154] | 1.24 | 5.62 | –
5 | Br.CCCCCCCCCCCCCCCC[N+](C)(C)CCN.[Br-] [Compound 297156] | 1.08 | 5.15 | –
6 | CCCCC(Oc1cc(C(C)(C)C)c(O)c(C(C)(C)C)c1)C(=O)O (centres unmarked) [Compound 297621] | 18.95 | – | –
7 | O=C(NC(=O)c1c(F)cccc1F)Nc1nc2ccccc2s1 [Compound 298153] | 3.67 | 3.43 | –
8 | c1ccc(-c2ccc(-c3csnn3)cc2)cc1 [Compound 298243] | – | 3.327 | 2.747
9 | CN(C)c1ccc(N=Nc2ccc3c4c(cccc24)-c2ccccc2-3)cc1 [Compound 299107] | 8.13 | 279.99 | –
10 | [Pd].[Pd].[S-]CC[S-].[S-]CC[S-].c1ccc([PH+](c2ccccc2)c2ccccc2)cc1.c1ccc([PH+](c2ccccc2)c2ccccc2)cc1 [Compound 300554] | 0.48 | 8.96 | –
11 | CC(C)[S-].CC(C)[S-].[Pt+2].c1ccc([PH+](c2ccccc2)c2ccccc2)cc1.c1ccc([PH+](c2ccccc2)c2ccccc2)cc1 [Compound 300559] | 0.71 | 4.71 | –
12 | Cc1ccc(NC(=O)c2cc3ccccc3cc2O)c(C)c1.Cc1ccc(NC(=O)c2cc3ccccc3cc2O)c(C)c1.[Mn+2] [Compound 306697] | 1.77 | 19.5 | –
13 | FC(F)(F)c1cc(NC2=NCCN=C(Nc3cc(C(F)(F)F)cc(C(F)(F)F)c3)SS2)cc(C(F)(F)F)c1 [Compound 309898] | 1.07 | 13.68 | –
14 | C[N+]1=C(/C=C/Nc2cc3c4ccccc4ccc3c3ccccc23)C(C)(C)c2ccccc21.[Cl-] [Compound 313162] | 1.07 | 4.03 | –
15 | CN(C)Cc1[c-]c(CN(C)C)ccc1.[Br][Pt] [Compound 315819] | 2.12 | 13.17 | –
16 | Clc1cc[c]([Sb]2([c]3ccc(Cl)cc3)([c]3ccc(Cl)cc3)[O]C(C(Cl)(Cl)Cl)[O]2)cc1 (centres unmarked) [Compound 316746] | 0.88 | 6.11 | –
17 | [C-]#[O+].[C-]#[O+].[C-]#[O+].[CH3][Sn]([c]1ccccc1)[c]1ccccc1.[Co].c1ccc([PH+](c2ccccc2)c2ccccc2)cc1 [Compound 319697] | 3.1 | – | –
18 | [C-]#[O+].[C-]#[O+].[C-]#[O+].[C-]#[O+].[C-]#[O+].[CH3][Sn]([Cl])[c]1ccccc1.[Mn] [Compound 319699] | 0.29 | 3.62 | –
19 | S=c1nccc[nH]1.[Pd] [Compound 321197] | – | 5.0845 | 5.014
20 | S=c1nccc[nH]1.[Pt] [Compound 321198] | – | 9.062 | 8.313
21 | COc1ccc(CCN2C(=O)C(=O)N(c3ccc(Cl)c(Cl)c3)C2=O)cc1OC [Compound 323938] | 0.99 | 5.53 | –

Row | Compound | Activity 2.5 uM | Activity 10 uM | Activity 5 uM
22 | CCCCCC(CN(C)C)C(=O)CC(SCC)c1ccc(Cl)c(Cl)c1 (centres unmarked) [Compound 326123] | 0.47 | 12.9 | –
23 | c1ccc(Nc2nnc(-c3ccc4c(c3)OCO4)o2)cc1 [Compound 326181] | – | 7.027 | 5.584
24 | CSC(=Nc1nc2ccc([N+](=O)[O-])cc2s1)SC [Compound 327371] | – | 22.247 | 13.29
25 | O=[N+]([O-])c1cccnc1S(=O)(=O)c1ccccn1 [Compound 327414] | – | 6.977 | 3.793
26 | CN(C)c1ccc(NC(=O)c2ccccc2O)cc1 [Compound 328479] | – | 7.342 | 7.502
27 | Cc1cccc(/C=N/Nc2ccc3ccccc3n2)n1 [Compound 332423] | – | 5.4265 | 4.287
28 | Cc1cccc(/C=N/Nc2cc(C)c3ccccc3n2)n1 [Compound 332426] | 2.37 | 3.15 | –
29 | C/C(=N\NC(=S)N1CCSCC1)c1ccccn1 [Compound 332543] | – | 5.182 | 4.083
30 | O=C1C(Cl)=C(Nc2nccs2)C(=O)c2ccccc21 [Compound 337757] | – | 5.978 | 6.205
31 | N#C/C(=C/C=C/c1ccccc1)c1ccccc1 [Compound 338119] | – | 5.6885 | 3.435
32 | Cc1ccc(/C=C/c2ccc([N+](=O)[O-])cc2)cc1 [Compound 338462] | – | 6.4125 | 4.54
33 | COc1ccc2c(Cc3ccccc3)c3[n+](cc2c1OC)CCc1cc2c(cc1-3)OCO2.[Br-] [Compound 338631] | 1.12 | 3.39 | –
34 | O=C(CC(c1cccnc1)C(C(=O)c1ccc(Cl)cc1)C(CC(=O)c1ccc(Cl)cc1)c1cccnc1)c1ccc(Cl)cc1 (centres unmarked) [Compound 339119] | 1.01 | 4.42 | –
35 | C1=C(c2ccccc2)OC(c2ccccc2)=C(c2ccccc2)[P+]1(c1ccccc1)c1ccccc1.[Br-] [Compound 339567] | 1.94 | 11.94 | –
36 | Cc1ccc(Sc2ccc3ccccc3n2)cc1 [Compound 340215] | 2.4 | 3.11 | –
37 | CN1/C(=C/C=C/C=C/C2=[N+](C)c3ccccc3C2(C)C)C(C)(C)c2ccccc21.[I-] [Compound 340302] | 3.29 | 4.54 | –
38 | COc1ccc(N=C(C)C2C(=O)c3ccccc3C2=O)cc1 [Compound 343385] | – | 8.3265 | 11.2
39 | CC(=Nc1ccc(F)cc1)C1C(=O)c2ccccc2C1=O [Compound 343386] | – | 5.4775 | 4.235
40 | COc1cccc(N=C(C)C2C(=O)c3ccccc3C2=O)c1 [Compound 343387] | 2.32 | 3.33 | –
41 | O=C(NCC(=O)N1CCCC1)N/N=C/c1ccccc1O [Compound 343979] | – | 3.1255 | 2.571
42 | CC(C)[N+](=C1O[B-](c2ccccc2)(c2ccccc2)O[B-]1(c1ccccc1)[C+]1CCCCC1)C(C)C (centres unmarked) [Compound 344506] | 0.69 | 5.08 | –

Row | Compound | Activity 2.5 uM | Activity 10 uM | Activity 5 uM
43 | Cc1nc2cc3c(cc2n2cccc12)oc1ccccc13 [Compound 346212] | – | 5.7595 | 5.376
44 | Nc1cc2c(cc1-n1cccc1)oc1ccccc12 [Compound 347204] | – | 6.6455 | 4.246
45 | Clc1nc2cc3c(cc2n2cccc12)oc1ccccc13 [Compound 347816] | – | 3.5245 | 3.143
46 | Br.CN1CCC2(C)CC(Br)(Cc3ccccc32)C1Cl (centres unmarked) [Compound 349125] | 0.47 | 13.75 | –
47 | [Cl][Hg][Cl] [Compound 353255] | 3.3 | – | –
48 | C/C(=N\NC(=S)Nc1nccs1)c1ccccn1 [Compound 354087] | 2.65 | 10.14 | –
49 | O=C(Nc1nc2ccsc2s1)c1ccccc1 [Compound 354215] | 3.08 | 4.14 | –
50 | c1ccc(-c2cnn3c(-c4ccccc4)cnnc23)cc1 [Compound 355167] | 3.09 | 4.17 | –
51 | [Cl][Sn]([CH2][Sn]([Cl])([c]1ccccc1)[c]1ccccc1)([c]1ccccc1)[c]1ccccc1 [Compound 356110] | – | 3.9 | 2.4
52 | [Br][Sn]([Br])([CH2][Sn]([Br])([c]1ccccc1)[c]1ccccc1)[c]1ccccc1 [Compound 356111] | – | 3.2 | 4.4
53 | COc1ccc2nc3cc(Cl)ccc3c(NCCC3CCCN4CCCCC34)c2c1 (centres unmarked) [Compound 359827] | 0.61 | 6.27 | –
54 | CSc1ncnc2c(C3OC(COC(C)=O)C(OC(C)=O)C3OC(C)=O)[nH]nc12 (centres unmarked) [Compound 360648] | 1.88 | 3.85 | –
55 | CC(C)(C)c1cc(C(O)(C(F)(F)F)C(F)(F)F)c(Cl)c(C(O)(C(F)(F)F)C(F)(F)F)c1 [Compound 361407] | 0.62 | 3.7 | –
56 | c1cc[c]([Ge]([O][Ge]([c]2ccccc2)[c]2ccccc2)[c]2ccccc2)cc1.c1cc[c]([Ge]([O][Ge]([c]2ccccc2)[c]2ccccc2)[c]2ccccc2)cc1 [Compound 361597] | 0.32 | 17.56 | –
57 | O=C1c2c(-c3ccccc3)ccc(-c3ccccc3)c2C2(O)OC1(O)c1c(-c3ccccc3)ccc(-c3ccccc3)c1C2=O [Compound 361889] | 0.88 | 12.01 | –
58 | COc1ccc(N=c2nc3n4c(c(Br)cc(Br)c4n2)NC(C(Br)(Br)Br)=N3)cc1 [Compound 366233] | 17.26 | 30.55 | –
59 | CC(/C=C/c1cccc(C)c1)=N\NC(N)=O [Compound 366583] | – | 3.134 | 2.409
60 | COc1ccc2c(n1)Sc1nc3ccccc3nc1N2 [Compound 367416] | – | 7.3545 | 6.047
61 | Br.C/C(=C\c1ccccc1)C(=O)C(CN(C)C)CN(C)C [Compound 367620] | 0.49 | 16.04 | –
